# Measurements taken from patent US9040701B2, “Apaf-1 inhibitor compounds” (LABORATORIOS SALVAT, S.A., priority 2009, dated 2015).
# Target: T1, Recombinant Apaf-1 produced in insect cells (rApaf-1) (Homo sapiens, UniProt O14727)
# T1 construct: made in house; host or cells: insect cells (Apaf-1); E. coli (procaspase-9); cytochrome c purchased from Sigma
# T1 sequence (O14727 1-1248): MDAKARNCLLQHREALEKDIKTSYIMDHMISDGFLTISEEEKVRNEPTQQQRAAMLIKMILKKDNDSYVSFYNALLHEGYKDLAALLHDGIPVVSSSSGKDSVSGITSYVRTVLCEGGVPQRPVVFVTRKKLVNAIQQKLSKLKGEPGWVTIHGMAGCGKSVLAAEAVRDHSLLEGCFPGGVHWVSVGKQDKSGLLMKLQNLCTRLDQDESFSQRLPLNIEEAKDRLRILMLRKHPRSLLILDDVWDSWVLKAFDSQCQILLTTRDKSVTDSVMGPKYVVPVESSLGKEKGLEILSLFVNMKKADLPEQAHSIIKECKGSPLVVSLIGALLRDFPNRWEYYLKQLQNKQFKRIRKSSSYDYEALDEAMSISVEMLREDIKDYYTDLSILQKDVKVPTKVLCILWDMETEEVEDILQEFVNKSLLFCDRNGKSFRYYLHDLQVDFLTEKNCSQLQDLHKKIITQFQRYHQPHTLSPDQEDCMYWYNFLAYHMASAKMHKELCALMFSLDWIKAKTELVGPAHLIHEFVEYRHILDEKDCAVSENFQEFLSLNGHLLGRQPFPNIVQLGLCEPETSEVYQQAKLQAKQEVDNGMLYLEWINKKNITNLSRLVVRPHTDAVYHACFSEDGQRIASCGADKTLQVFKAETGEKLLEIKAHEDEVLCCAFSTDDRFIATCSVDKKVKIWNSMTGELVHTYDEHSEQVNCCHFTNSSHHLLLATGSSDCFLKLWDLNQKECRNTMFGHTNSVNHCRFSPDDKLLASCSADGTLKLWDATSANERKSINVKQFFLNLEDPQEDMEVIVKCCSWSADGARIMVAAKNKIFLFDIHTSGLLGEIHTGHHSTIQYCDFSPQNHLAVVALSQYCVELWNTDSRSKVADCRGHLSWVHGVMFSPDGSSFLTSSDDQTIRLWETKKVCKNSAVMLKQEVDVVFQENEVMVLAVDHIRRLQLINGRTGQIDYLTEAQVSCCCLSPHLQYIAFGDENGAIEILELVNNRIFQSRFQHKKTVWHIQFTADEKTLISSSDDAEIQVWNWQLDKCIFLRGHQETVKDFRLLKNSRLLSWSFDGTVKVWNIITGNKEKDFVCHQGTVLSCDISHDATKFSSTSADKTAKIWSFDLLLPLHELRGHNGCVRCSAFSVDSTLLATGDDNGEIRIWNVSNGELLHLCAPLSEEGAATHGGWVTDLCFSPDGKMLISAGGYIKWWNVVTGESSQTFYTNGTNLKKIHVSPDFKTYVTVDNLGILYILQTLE
# Test: In vitro apoptosome formation inhibition assay
# Type: biochemical
# Details: compound at 10 μM; rApaf-1 40 nM, dATP/Mg 100 μM, horse cytochrome c 0.1 μM, rprocaspase-9 0.1 μM; caspase-9 substrate Ac-LEDH-afc, afc release at 37° C.
# Description: Recombinant Apaf-1 produced in insect cells (rApaf-1) was incubated in the presence (at a concentration of 10 μM) or absence (as control) of the compounds to be evaluated in the assay buffer (20 mM Hepes-KOH pH 7.5, 10 mM KCl, 1.5 mM MgCl2, 1 mM EDTA, 1 mM EGTA, 1 mM DTT, 0.1 mM PMSF) for 15 minutes at 30° C. The final rApaf-1 concentration was 40 nM. dATP/Mg (Sigma) and purified horse cytochrome c (Sigma) were then added achieving final concentrations of 100 μM and 0.1 μM, respectively. It was incubated for 60 minutes at 30° C. and recombinant procaspase-9 produced in E. coli (rprocaspase-9, final concentration 0.1 μM) was then added and it was incubated for 10 minutes at 30° C. before adding the caspase-9 fluorogenic substrate Ac-LEDH-afc (final concentration 50 μM). The total assay volume was 200 μL. The caspase activity was continuously monitored by means of the afc release at 37° C. in a Wallac 1420 Workstation (λexc=390 nm, λem=510 nm).
# The activity values of some compounds described in the examples are indicated in the following table expressed as the percentage of Apaf-1 inhibition.
row,Compound,inhibition at 10 µM
1,"NC(=O)CN(CCc1ccccn1)C(=O)CC1C(=O)N(CCc2ccc(Cl)cc2Cl)CC(=O)N1CCC(c1ccccc1)c1ccccc1 (stereo not shown) [I.1.16, N-(2-amino-2-oxoethyl)-2-(4-(2,4-dichlorophenethyl)-1-(3,3-diphenylpropyl)-3,6-dioxopiperazin-2-yl)-N-(2-(pyridin-2-yl)ethyl)acetamide]",46%
2,"CCC(C)N(CC(N)=O)C(=O)CC1C(=O)N(CCc2ccc(Cl)cc2Cl)CC(=O)N1CCC(c1ccccc1)c1ccccc1 (stereo not shown) [I.1.20, N-(2-amino-2-oxoethyl)-N-(sec-butyl)-2-(4-(2,4-dichlorophenethyl)-1-(3,3-diphenylpropyl)-3,6-dioxopiperazin-2-yl)acetamide]",36%
3,"NC(=O)CN(CCc1ccc(Cl)cc1Cl)C(=O)CC1C(=O)N(CCc2ccc(Cl)cc2Cl)CC(=O)N1CCc1ccc(-c2ccccc2)cc1 (stereo not shown) [Ia.6.2, 2-(1-(2-([1,1′-biphenyl]-4-yl)ethyl)-4-(2,4-dichlorophenethyl)-3,6-dioxopiperazin-2-yl)-N-(2-amino-2-oxoethyl)-N-(2,4-dichlorophenethyl)acetamide]",29%
4,"O=C(O)CN(CCc1ccc(Cl)cc1Cl)C(=O)CC1C(=O)N(CCc2ccc(Cl)cc2Cl)CC(=O)N1CCC(c1ccccc1)c1ccccc1 (stereo not shown) [Ib.1.2, 2-(N-(2,4-dichlorophenethyl)-2-(4-(2,4-dichlorophenethyl)-1-(3,3-diphenylpropyl)-3,6-dioxopiperazin-2-yl)acetamido) acetic acid]",72%
5,"O=C(O)CN(CCc1ccc(Cl)cc1Cl)C(=O)CC1C(=O)N(CCc2ccc(Cl)cc2Cl)CC(=O)N1Cc1ccc(F)cc1 (stereo not shown) [Ib.2.2, 2-(N-(2,4-dichlorophenethyl)-2-(4-(2,4-dichlorophenethyl)-1-(4-fluorobenzyl)-3,6-dioxopiperazin-2-yl)acetamido) acetic acid]",28%
6,"O=C(O)CN(CCc1ccc(Cl)cc1Cl)C(=O)CC1C(=O)N(CCc2ccc(Cl)cc2Cl)CC(=O)N1CCc1c[nH]c2ccccc12 (stereo not shown) [Ib.3.2, 2-(2-(1-(2-(1H-indol-3-yl)ethyl)-4-(2,4-dichlorophenethyl)-3,6-dioxopiperazin-2-yl)-N-(2,4-dichlorophenethyl)acetamido) acetic acid]",48%

# More lines, now with the values ahead:
row,inhibition at 10 µM,Compound
1,29%,"COC(=O)CN(CCc1ccc(Cl)cc1Cl)C(=O)CC1C(=O)N(CCc2ccc(Cl)cc2Cl)CC(=O)N1CCc1c[nH]c2ccccc12 (stereo not shown) [Ic.3.2, Methyl 2-(2-(1-(2-(1H-indol-3-yl)ethyl)-4-(2,4-dichlorophenethyl)-3,6-dioxopiperazin-2-yl)-N-(2,4-dichlorophenethyl)acetamido)acetate]"
2,23%,"COC(=O)CN(CCc1ccc(Cl)cc1Cl)C(=O)CC1C(=O)N(CCc2ccc(Cl)cc2Cl)CC(=O)N1CCc1c[nH]c2ccc(OC)cc12 (stereo not shown) [Ic.5.2, Methyl 2-(N-(2,4-dichlorophenethyl)-2-(4-(2,4-dichlorophenethyl)-1-(2-(5-methoxy-1H-indol-3-yl)ethyl)-3,6-dioxopiperazin-2-yl)acetamido)acetate]"
3,40%,"COc1ccc2[nH]cc(CCN3C(=O)CN(CCc4ccc(Cl)cc4Cl)C(=O)C3CC(=O)NCCc3ccc(Cl)cc3Cl)c2c1 (stereo not shown) [Id.5.2, N-(2,4-dichlorophenethyl)-2-(4-(2,4-dichlorophenethyl)-1-(2-(5-methoxy-1H-indol-3-yl)ethyl)-3,6-dioxopiperazin-2-yl)acetamide]"
4,80%,"NCCCCC(NC(=O)CN(CCc1ccc(Cl)cc1Cl)C(=O)CC1C(=O)N(CCc2ccc(Cl)cc2Cl)CC(=O)N1CCC(c1ccccc1)c1ccccc1)C(N)=O (stereo not shown) [If.1.2, 6-amino-2-(2-(N-(2,4-dichlorophenethyl)-2-(4-(2,4-dichlorophenethyl)-1-(3,3-diphenylpropyl)-3,6-dioxopiperazin-2-yl)acetamido)acetamido)hexanamide]"
